Seven molecules from patent publication US5527940A, “Methanediphosphonate derivative, its manufacturing process and its pharmaceutical applications” (Toray Industries, Inc., priority 1991, dated 1996) can be followed below.

For assay [1], the system named is adjuvant arthritis model. Nature of the assay: Adjuvant Arthritis Test. Conditions: subcutaneous daily days 8-21; for Bone Destruction Inhibition Rate with respect to control group, Day 22: Day 22, soft X-ray score of left and right hind limbs; for Swelling Inhibition Rate with respect to Control Group, Day 21, Left / Swelling Inhibition Rate with respect to Control Group, Left (day 14 per footnote) / Swelling Inhibition Rate with respect to Control Group, Day 16, Left: left (adjuvant-injected) hind limb; for Swelling Inhibition Rate with respect to Control Group, Left (day 14 per footnote) / Swelling Inhibition Rate with respect to Control Group, Right (day 14 per footnote): day 14 (column head Day 16); for Swelling Inhibition Rate with respect to Control Group, Day 21, Right / Swelling Inhibition Rate with respect to Control Group, Right (day 14 per footnote) / Swelling Inhibition Rate with respect to Control Group, Day 16, Right: right hind limb. Format: in vivo, 7 week old female Lewis rats. Set-up: concentration or dose not given beside the values. As for the experimental part: Multiple arthritis resembling human chronic articular rheumatism occurs when tubercule bacillus adjuvant is injected into rats. The antiinflammatory, antirheumatic and bone metabolism improving action of compounds of the present invention were investigated according to the following procedure using this adjuvant arthritis model.
0.1 mg of dried non-viable Mycobacterium butyricum cells were suspended in 0.1 ml of liquid paraffin followed by injection into the skin of the left hind limb of 7 week old female Lewis rats. The compounds obtained in the Examples were dissolved in sterilized distilled water and administered subcutaneously every day for two weeks from the 8th to 21st days after injection of adjuvant. During that time, the volumes of the right and left hind limbs were measured and the swelling rate was calculated according to the following formula: [formula]
Moreover, the swelling inhibition rates were also determined according to the following formula, and those values are shown in Table 1. [formula]
Soft X-ray radiographs were taken of the left and right hind limbs of the animals following sacrifice on day 22. The degree of bone destruction at five locations in the left and right hind limbs was evaluated based on the soft X-ray radiographs scoring those results among 5 ranks. Moreover, the bone destruction inhibition rate was calculated using the following formula, and those values are shown in Table 1. [formula]
Those results that were significant at a level of significance of P<0.001 with respect to a control group administered only sterilized distilled water according to the Student's t-test and Chukey's multiple comparison method were indicated with three asterisks (***), those results that were significant at a level of significance of P<0.01 were indicated with two asterisks (**), and those significant at a level of significance of P<0.05 were indicated with one asterisk (*).
The swelling inhibition rates for Example 7 and Example 33 are the values for day 14 and day 21.

The subject of assay [2] is active oxygen production by human neutrophils. Nature of the assay: Release of active oxygen from fMLP-stimulated human neutrophils (CLA luminescence). Format: cell-based. Conditions: Neutrophil, 10 μM compound, fMLP stimulation, read-out: Active Oxygen Production Inhibition Rate. From the text: Neutrophils are known to function in the body defense reactions by phagocytosis of foreign bodies to remove them and production of active oxygen and digestive enzymes. However, the active oxygen and digestive enzymes produced by neutrophils also damage normal tissue during chronic inflammations and so forth. Moreover, they are also considered to exacerbate the inflammation. The action of compounds of the present invention was therefore measured with respect to the release of active oxygen from human neutrophils.
50 ml of human blood were drawn from a vein using 3.8% sodium citrate as anticoagulant. Equal volumes of this blood and a physiological saline solution containing 2% dextran were mixed and allowed to stand undisturbed for 30 minutes at 37° C. after shaking several times. The upper layer was separated and layered onto an equal volume of Ficoll-Paque solution. After centrifuging for 30 minutes at 1400 rpm and 20° C., the supernatant was removed and the cells were resuspended with Hanks buffer. […] The maximum amount of light emitted was then determined by a luminometer taking advantage of the phenomenon in which this excited carbonyl form emits light at 380 nm in the process of transition to the ground state. The active oxygen production inhibition rate was then calculated using the formula indicated below. […]

For assay [3], the system named is osteoclasts (mouse bone cells), resorption pit formation. Nature of the assay: Bone resorption pit formation by mouse bone cells (osteoclasts) on ivory, active type-vitamin D3 stimulation. Format: cell-based, ICR mice. To be noted: 10 nM active type-vitamin D3, 4 days. From the text:
The balance between bone formation and bone destruction is disturbed during osteoporosis, with bone destruction considered to be accelerated. Bone destruction is believed to occur due to an increase in the activation and number of osteoclasts. Experiments have been conducted wherein bone resorption was induced with active type-vitanium D3 stimulation using mouse bone cells dispersed on ivory for the experimental model. The bone resorption inhibitory action of compounds of the present invention was measured using this model.
After isolating the femur and tibia from 10-15 day old ICR mice, the bone specimens were prepared into thin sections in α-MEM medium containing 5% fetal bovine serum to prepare an bone cells suspension containing marrow cells and bone matrix. Large fragments of bone were removed with nylon mesh. Viable total cells were counted with trypan blue exclusion test while osteoclasts were stained with tartaric acid-resistantacid phosphatase stain to prepare a cell suspension containing osteoclasts in a proportion of roughly 0.05-0.1%. The ivory was cut into thin sections having a thickness of 150 μm using a low-speed rotary diamond cutter. The thin sections were then punched to a size that matched the size of the wells of a 96 well plate. These ivory fragments were placed in a 96 well plate followed by addition of the cell suspension prepared above so that each well contained 500 osteoclasts. 10 nM active type-vitamin D3 was added as stimulant simultaneous to addition of the drugs of the present invention at concentrations of 10 μM and 100 μM. After culturing the cells for 4 days at 37° C. in an environment of 10% CO2, the resorption pits that formed on the ivory slices were stained with hematoxylin and counted by observing microscopically. The resorption pit formation inhibition rate was then calculated using the formula indicated below. [formula]
The results were statistically processed using the Student's t-test, and those results that were significant at a level of significance of P<0.05 with respect to an active type-vatanium D3 stimulation control group were indicated with one asterisk (*), while those results that were significant at a level of significance of P<0.01 were indicated with two asterisks (**).

The test system of assay [4] is IL-1 production by J774-1 mouse macrophage cells. Nature of the assay: Action on IL-1 Production by Strain J774-1 Mouse Macrophage Cells (LPS stimulated). The format is cell-based. To be noted: 100 μM compound, LPS 1 μg/ml, 24 hours, read-out: IL-1 Production Inhibition Rate with respect to Control Group. As for the experimental part: It is also known that these cells produce IL-1 when stimulated with LPS. The inhibitory action on IL-1 production of compounds of the present invention was measured according to the following procedure using this cell line.
The J774-1 cells were cultured in RPMI-1640 medium containing 10% fetal bovine serum and 50 μM 2-mercaptoethanol followed by adjusting the number of cells to 2×10^5 cells/ml. 1 ml aliquots of this cell suspension were then placed in the wells of a 24 well plate and cultured for 30 minutes. Following culturing, LPS was added to a final concentration of 1 μg/ml. At the same time, compounds obtained in Examples were dissolved in sterilized distilled water and added at a concentration of 100 μM. […]
The samples obtained above were serially diluted by a factor of 2 in a 96 well multiplate at a capacity of 50 μl. […] The thymus cells were then cultured for 72 hours and IL-1 activity was determined from the growth rate of the cells. […] Using the absorbance of the pigment produced by this reduction at 570 nm as the index, the dilution factor of the sample when growth of thymus cells is induced by 50% was calculated in terms of the number of units of that sample by taking the case of induction of maximum growth of T cells by human gene recombinant IL-1 to be 100% growth, and growth in the case of not adding IL-1 to be 0%. […]

Consider `CSc1cccc(SC(P(=O)(O)O)P(=O)(O)O)c1` [Example 7, (3-methylthiophenyl)thiomethanediphosphonic Acid], for which, in assay [1], the “Bone Destruction Inhibition Rate with respect to control group, Day 22” value (“Bone Destruction Inhibition Rate” below) came to 43.7%; the “Swelling Inhibition Rate with respect to Control Group, Day 21, Left” value (“Swelling Inhibition Rate … Day 21, Left” for short) came out at 72.7%; the “Swelling Inhibition Rate with respect to Control Group, Left (day 14 per footnote)” value was determined as 48.6%; the “Swelling Inhibition Rate with respect to Control Group, Day 21, Right” value (“Swelling Inhibition Rate … Day 21, Right” below) came out at 24.2%. The “Swelling Inhibition Rate with respect to Control Group, Right (day 14 per footnote)” value in assay [1] stood at 15.0%.

As for `CSc1ccccc1SC(P(=O)(O)O)P(=O)(O)O` [Example 9, (2-methylthiophenyl)thiomethanediphosphonic Acid], the inhibition (commonly the share of the control response that was lost under treatment) at 10 µM in assay [2] was 46.3 ± 0.81%. Besides, the “resorption pit formation Inhibition Rate with respect to Control Group” value (“resorption pit formation Inhibition Rate” below) in assay [3] (10 μM compound) is reported as 35.8 ± 27.0%; in assay [3] (100 μM compound) it was 77.8 ± 3.59%.

As for `CC(C)Sc1ccc(SC(P(=O)(O)O)P(=O)(O)O)cc1` [Example 13, (4-isopropylthiophenyl)thiomethanediphosphonic Acid], in assay [1], the “Bone Destruction Inhibition Rate” value turned out to be 62.5%; the “Swelling Inhibition Rate with respect to Control Group, Day 16, Left” value is recorded as 76.9%; the “Swelling Inhibition Rate … Day 21, Left” value is reported as 91.8%; the “Swelling Inhibition Rate with respect to Control Group, Day 16, Right” value was 16.8%. In addition, the “Swelling Inhibition Rate … Day 21, Right” value in assay [1] is on record as 28.7%. Besides, in assay [3] (10 μM compound), the “resorption pit formation Inhibition Rate” value turned out to be 54.6 ± 10.4%. Also, in assay [3] (100 μM compound), the “resorption pit formation Inhibition Rate” value amounted to 92.5 ± 0.61%. Besides, in assay [4], the inhibition at 100 µM is 38.6%.

For the molecule `O=P(O)(O)C(Sc1ccc(Sc2ccccc2)cc1)P(=O)(O)O` [Example 15, (4-phenylthiophenyl)thiomethanediphosphonic Acid], in assay [1], the “Bone Destruction Inhibition Rate” value amounted to 33.7%; the “Swelling Inhibition Rate with respect to Control Group, Day 16, Left” value was 75.0%; the “Swelling Inhibition Rate … Day 21, Left” value is 73.8%; the “Swelling Inhibition Rate with respect to Control Group, Day 16, Right” value worked out at 28.1%. The “Swelling Inhibition Rate … Day 21, Right” value in assay [1] stood at 33.7%. Moreover, the “resorption pit formation Inhibition Rate” value in assay [3] (10 μM compound) is given as 30.5 ± 22.9%. Further, in assay [3] (100 μM compound), the “resorption pit formation Inhibition Rate” value came out at 74.1 ± 4.38%.

For `CSc1ccc(C=C(P(=O)(O)O)P(=O)(O)O)cc1` [Example 28, 2-(4-methylthiophenyl)ethynilidene-1,1-diphosphonic acid], the “resorption pit formation Inhibition Rate” value was -0.34 ± 10.1% in assay [3] (10 μM compound) and 67.8 ± 3.98% in assay [3] (100 μM compound).

`CSc1ccc(CC(P(=O)(O)O)P(=O)(O)O)cc1` [Example 30, 2-(4-methylthiophenyl)ethane-1,1-diphosphonic acid]: the “resorption pit formation Inhibition Rate” value in assay [3] (10 μM compound) was determined as 35.6 ± 11.3%; in assay [3] (100 μM compound), 87.0 ± 4.34%.

Turning to `CSc1ccc(SCCCC(O)(P(=O)(O)O)P(=O)(O)O)cc1` [Example 33, disodium 4-(4-methylthiophenyl)thio-1-hydroxy-butylidene-1,1-diphosphonate], in assay [1], the “Bone Destruction Inhibition Rate” value is listed as 77.1%; the “Swelling Inhibition Rate … Day 21, Left” value is listed as 138.0%; the “Swelling Inhibition Rate with respect to Control Group, Left (day 14 per footnote)” value is reported as 115.0%; the “Swelling Inhibition Rate … Day 21, Right” value turned out to be 66.1%. Besides, the “Swelling Inhibition Rate with respect to Control Group, Right (day 14 per footnote)” value in assay [1] came to 63.5%.
